Data on two molecules can be found in patent US11000033B2, “Ketone or oxime compound, and herbicide” (NISSAN CHEMICAL CORPORATION, priority 2014, dated 2021).

Holding throughout (format): in vivo
One data set deals with corn. The data set can be described thus: Test Example 4: effect on crop by soil treatment (symbol c). As to conditions: 320 g/ha. Put shortly:
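Grown at 25° C. to 30° C. in a greenhouse, the crops came from seed sown spot-wise in sterilized diluvial soil under roughly 1.5 cm of covering soil.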

For data set [1], the system named is Alopecurus myosuroides. Description: Test Example 5: herbicidal effect by foliage application, plastic box (symbol J). To be noted: 320 g/ha, 3 weeks after application. Put shortly: (§1)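 Effect is rated 3 weeks after a foliar spray of water-diluted emulsion concentrate at a predetermined herbicide amount. Plants had grown 14 days in a 25° C. to 30° C. greenhouse from seed in sterilized diluvial soil.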

Data set [2] relates to Alopecurus myosuroides. The data set can be described thus: Test Example 4: herbicidal effect by soil treatment (symbol J). As to conditions: 320 g/ha. In short, it runs like this:
(§2)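 Seeds were sown in sterilized diluvial soil, covered with about 1.5 cm of soil, and the soil surface was sprayed with a water-diluted emulsion of the compound at a predetermined rate. Plants grew in a greenhouse at 25° C. to 30° C.; effects were scored visually 3 weeks after application.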

The subject of data set [3] is Echinochloa oryzacola Vasing. The data set can be described thus: Test Example 1: herbicidal activity, application before weed generation in submerged conditions (symbol A). To be noted: application herbicide amount 320 g/ha. In short, it runs like this: (§3)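 0–5 visual score, 3 wk post-application. Submerged pots, alluvial soil, water 4 cm; seeds sown mixed, rice at 2.5 leaves transplanted. Emulsion diluted to predetermined dose, applied to water surface at sowing. 25–30 °C greenhouse.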

The next data set has as its system soybean. Description: Test Example 4: effect on crop by soil treatment (symbol d). To be noted: 320 g/ha. Put shortly: (§4)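 Steps: fill box with sterilized diluvial soil; sow seed spot-like; cover with ~1.5 cm soil; grow in greenhouse (25° C. to 30° C.).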
The subject of data set [4] is Galium spurium. Description: Test Example 4: herbicidal effect by soil treatment (symbol Q). As to conditions: 320 g/ha. In short, it runs like this: as §2
The subject of another data set is Scirpus juncoides. Description: Test Example 1: herbicidal activity, application before weed generation in submerged conditions (symbol B). As to conditions: application herbicide amount 320 g/ha. In short, it runs like this:
as §3

The next data set has as its system rice. The data set can be described thus: Test Example 4: effect on crop by soil treatment (symbol b). To be noted: 320 g/ha. In short, it runs like this:
as §4

A further data set concerns Lolium multiflorum Lam. The data set can be described thus: Test Example 5: herbicidal effect by foliage application, plastic box (symbol K). As to conditions: 320 g/ha, 3 weeks after application. Put shortly:
as §1

For a further data set, the system named is Cyperus difformis. The data set can be described thus: Test Example 3: herbicidal effect by foliage application, Wagner pot (symbol E). To be noted: application herbicide amount 320 g/ha. In short, it runs like this: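 In a shallow-flooded alluvial soil system held at 25–30 °C, plants including rice grew for 14 days and were then sprayed over the foliage with emulsion diluted to a fixed herbicide amount. Visual rating followed at 3 weeks.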

The next data set deals with wheat. The data set can be described thus: Test Example 4: effect on crop by soil treatment (symbol e). To be noted: 320 g/ha. Put shortly: as §4
For a further data set, the system named is Setaria viridis. Description: Test Example 5: herbicidal effect by foliage application, plastic box (symbol G). As to conditions: 320 g/ha, 3 weeks after application. Put shortly:
as §1

The subject of data set [5] is Galium spurium. The data set can be described thus: Test Example 5: herbicidal effect by foliage application, plastic box (symbol Q). As to conditions: 320 g/ha, 3 weeks after application. Put shortly: as §1
A further data set deals with transplanted rice plant. Description: Test Example 1: effect on crop, application before weed generation in submerged conditions (symbol a). To be noted: application herbicide amount 320 g/ha. Put shortly: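 Alluvial soil pots flooded to 4 cm water, sown with Echinochloa oryzacola, Scirpus juncoides and Monochoria vaginalis, then transplanted with 2.5 leaf stage rice seedlings; pre-emergence application. Greenhouse 25° C. to 30° C.; scored 0–5 by herbicidal ratio 3 weeks after application.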

The subject of the next data set is Stellaria media. Description: Test Example 4: herbicidal effect by soil treatment (symbol P). As to conditions: 320 g/ha. In short, it runs like this:
as §2

As for `CON=C(C)CC1CC(OC(=O)c2ccccc2C(F)(F)F)=C(c2c(C)cc(C)cc2C)C1=O` (stereo not drawn) [1-154], the “c: corn, effect grade on crop” value in the data set with corn is reported as 0 (Herbicidal ratio of 5% or lower (almost no effect)). Also, the “J: Alopecurus myosuroides, herbicidal effect (criteria 0-5)” value in the data set with Alopecurus myosuroides [1] was 5 (Herbicidal ratio of 90% or more (almost completely withered)). Besides, in the data set with Alopecurus myosuroides [2], the “J: Alopecurus myosuroides, herbicidal effect grade” value is 5 (Herbicidal ratio of 90% or more (almost completely withered)). The “Herbicidal effect grade, A: Echinochloa oryzacola Vasing.” value in data set [3] is on record as 5 (Herbicidal ratio of 90% or more (almost completely withered)). Also, the “d: soybean, effect grade on crop” value with soybean is recorded as 0 (Herbicidal ratio of 5% or lower (almost no effect)). The “Q: Galium spurium, herbicidal effect grade” value with Galium spurium [4] is recorded as 0 (Herbicidal ratio of 5% or lower (almost no effect)). In addition, the “Herbicidal effect grade, B: Scirpus juncoides” value in the data set on Scirpus juncoides is 4 (Herbicidal ratio of 70% or higher and lower than 90%). In the data set on rice, the “b: directly sowed rice plant, effect grade on crop” value is given as 5 (Herbicidal ratio of 90% or more (almost completely withered)). Besides, the “K: Lolium multiflorum Lam., herbicidal effect (criteria 0-5)” value in the data set with Lolium multiflorum Lam. is given as 5 (Herbicidal ratio of 90% or more (almost completely withered)). Besides, in the data set on Cyperus difformis, the “herbicidal effect on E, grade 0-5” value is on record as 5 (Herbicidal ratio of 90% or more (almost completely withered)). Also, the “e: wheat, effect grade on crop” value in the data set on wheat is 3 (Herbicidal ratio of 40% or higher and lower than 70%). Moreover, in the data set on Setaria viridis, the “G: Setaria viridis, herbicidal effect (criteria 0-5)” value is recorded as 5 (Herbicidal ratio of 90% or more (almost completely withered)). In addition, the “Q: Galium spurium, herbicidal effect (criteria 0-5)” value with Galium spurium [5] is 3 (Herbicidal ratio of 40% or higher and lower than 70%). Also, the “Effect grade on crop, a: transplanted rice plant” value with transplanted rice plant is 5 (Herbicidal ratio of 90% or more (almost completely withered)). The “P: Stellaria media, herbicidal effect grade” value in the data set with Stellaria media was 0 (Herbicidal ratio of 5% or lower (almost no effect)).
On to `CON=C(C)CC1CC(OC(=O)c2ccccc2OC(F)(F)F)=C(c2c(C)cc(C)cc2C)C1=O` (stereo not drawn) [1-155], for which the “c: corn, effect grade on crop” value in the data set with corn was 3 (Herbicidal ratio of 40% or higher and lower than 70%). Further, in the data set with Alopecurus myosuroides [1], the “J: Alopecurus myosuroides, herbicidal effect (criteria 0-5)” value is given as 5 (Herbicidal ratio of 90% or more (almost completely withered)). Also, the “J: Alopecurus myosuroides, herbicidal effect grade” value with Alopecurus myosuroides [2] was 5 (Herbicidal ratio of 90% or more (almost completely withered)). Moreover, the “Herbicidal effect grade, A: Echinochloa oryzacola Vasing.” value in [3] is 5 (Herbicidal ratio of 90% or more (almost completely withered)). In addition, in the data set on soybean, the “d: soybean, effect grade on crop” value is on record as 0 (Herbicidal ratio of 5% or lower (almost no effect)). The “Q: Galium spurium, herbicidal effect grade” value with Galium spurium [4] was 0 (Herbicidal ratio of 5% or lower (almost no effect)). In the data set on Scirpus juncoides, the “Herbicidal effect grade, B: Scirpus juncoides” value is recorded as 5 (Herbicidal ratio of 90% or more (almost completely withered)). In addition, in the data set with rice, the “b: directly sowed rice plant, effect grade on crop” value is 5 (Herbicidal ratio of 90% or more (almost completely withered)). Besides, the “K: Lolium multiflorum Lam., herbicidal effect (criteria 0-5)” value in the data set on Lolium multiflorum Lam. is 5 (Herbicidal ratio of 90% or more (almost completely withered)). The “herbicidal effect on E, grade 0-5” value in the data set on Cyperus difformis was 5 (Herbicidal ratio of 90% or more (almost completely withered)). Further, the “e: wheat, effect grade on crop” value in the data set on wheat is 3 (Herbicidal ratio of 40% or higher and lower than 70%). Moreover, the “G: Setaria viridis, herbicidal effect (criteria 0-5)” value in the data set on Setaria viridis was 5 (Herbicidal ratio of 90% or more (almost completely withered)). Moreover, the “Q: Galium spurium, herbicidal effect (criteria 0-5)” value in the data set with Galium spurium [5] is reported as 0 (Herbicidal ratio of 5% or lower (almost no effect)). The “Effect grade on crop, a: transplanted rice plant” value with transplanted rice plant is 5 (Herbicidal ratio of 90% or more (almost completely withered)). For the same molecule, the “P: Stellaria media, herbicidal effect grade” value in the data set on Stellaria media is reported as 0 (Herbicidal ratio of 5% or lower (almost no effect)).
